Results published in patent publication US20260327264A1, “PEPTIDE INHIBITORS OF INTERLEUKIN-23 RECEPTOR” (Zealand Pharma A/S, priority 2023, published 2026).

Assays:
human IL-23R = molecular target: T1, human IL-23R (Homo sapiens, UniProt Q5VWK5); assay: Binding assay: displacement of fluorophore (TAMRA)-labelled reference compound from human IL-23R (BRET, Nluc-IL23R fusion protein membranes)
T1 construct: Nanoluc luciferase (Nluc); secretion signal encoded by the plasmid (not specified); expressed in transfected cells; crude membranes used in the assay
T1 sequence (Q5VWK5 22-629): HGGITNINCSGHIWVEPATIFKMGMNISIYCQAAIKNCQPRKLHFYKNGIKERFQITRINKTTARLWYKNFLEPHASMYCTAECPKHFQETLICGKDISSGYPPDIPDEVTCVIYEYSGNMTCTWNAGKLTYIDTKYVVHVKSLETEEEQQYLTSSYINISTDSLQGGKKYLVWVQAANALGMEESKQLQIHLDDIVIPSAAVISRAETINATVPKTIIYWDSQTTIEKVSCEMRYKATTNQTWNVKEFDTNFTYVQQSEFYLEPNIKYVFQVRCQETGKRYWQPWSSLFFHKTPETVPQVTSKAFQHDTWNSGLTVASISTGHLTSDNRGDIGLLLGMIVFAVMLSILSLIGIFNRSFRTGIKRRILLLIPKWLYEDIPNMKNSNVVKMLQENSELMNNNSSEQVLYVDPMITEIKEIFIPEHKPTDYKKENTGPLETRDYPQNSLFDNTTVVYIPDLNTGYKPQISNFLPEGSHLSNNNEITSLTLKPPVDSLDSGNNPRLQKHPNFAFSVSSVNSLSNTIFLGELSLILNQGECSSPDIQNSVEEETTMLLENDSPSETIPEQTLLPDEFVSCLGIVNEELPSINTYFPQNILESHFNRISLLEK
From the text: The assay principle relies on Bioluminescence Resonance Energy Transfer (BRET) between a fluorophore-labelled reference compound binding to the IL-23R part of a fusion protein consisting of the IL-23R fused to a Nanoluc luciferase enzyme (Nanoluc). The Nanoluc is placed in the N-terminus in close proximity to the binding domain of the ligand. Upon close proximity between the fluorophore of the fluorophore-labelled compound and the Nanoluc of the fusion protein, bioluminescence energy generated from conversion of a Nanoluc substrate, is transferred to the fluorophore resulting in an increase in BRET. In presence of an unlabelled compound, the unlabelled compound displaces the fluorophore-labelled peptide from its binding site resulting in a decrease in BRET. The concentration for which half of the fluorophore-labelled peptide is displaced by the unlabelled compound depends on the affinity of the compound for the IL-23R, and is termed the IC50 concentration.
The plasmid also contained a gene to confer resistance for the antibiotic hygromycin. A cell line stably expressing the Nluc-IL23R fusion protein was generated by transfection of HEK293 cells with the expression plasmid and selected with hygromycin for 3 weeks in Growth medium consisting of DMEM w/Glutamax-I containing, 10% V/V FBS, 1% V/V P/S, 1 mM Sodium Pyruvate, and 1× NEAA, and 0.3 mg/mL hygromycin. The remaining cells were propagated and considered a stable expressing Nluc-IL23R fusion protein pool clone.
Cells expressing the Nluc-IL23R fusion protein were expanded in Growth medium and membranes prepared by homogenization of a cell pellet from 18 T175 flasks (4° C. in subsequent steps). The cell pellet was lysed Tris 10 mM, 7.5, 1 mM EDTA and protease inhibitors (Complete, Roche) and homogenized using a 15 mL glass-dounce by 50 strokes. The homogenate was spun at spin @1500 rpm for 10 min, the supernatant transferred to SV-34 tubes and spun at 40000 g for 20 min at 4° C. to pellet the crude membranes. The supernatant was then removed, the pellet resuspended in 5 mL buffer containing 50 mM HEPES pH 7.4, 5 mM EGTA, and 5 mM MgCl2, and homogenized. Aliquots of the resuspended and homogenized membranes containing the Nluc-IL23R fusion protein were stored at −80° C. until use.
The plate was sealed with light impermeable plate seals, and incubated on an orbital shaker 400 rpm for 2 hours at room temperature. To determine the BRET ratio, the plate seal was removed and 25 μL of the Nanoluc substrate (Promega N1572) diluted 1:500 was added to each well and incubated for 1-2 minutes on an orbital shaker at 400 rpm. […] The BRET ratio was calculated as the fluorescence from the TAMRA/nanoluc bioluminescence.
Compound potency (IC50) and maximal displacement (% displacement) were estimated by computer-aided curve fitting using a 4-parameter logistic (4PL) non-linear model. The IC50 and maximal for each compound was determined by computer-aided curve fitting using a 4-parameter logistic (4PL) non-linear model.

[1] = tested on: IL-23 mediated STAT3 signalling (DB cells); assay: Functional inhibition of IL-23 mediated STAT3 signalling (phospho-STAT3 Tyr705) in DB cells; assay type: cell-based, human; conditions: for IC50: Table 3-2, EC80 of hIL-23, read-out: hIL-23 (pSTAT3) antagonist IC50; for hIL-23 (pSTAT3) antagonist % inhibition: Table 3-2, maximal inhibitory response, EC80 of hIL-23
Method in brief: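 Phospho-STAT3 in lysed DB cells quantified by MSD kit after 90 min exposure to EC80 human IL-23, following 15 min compound pretreatment (37° C, 5% CO2). IC50 and maximal inhibition derived from curves normalized between IL-23-only and buffer-only controls.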

[2] = Peptide stability in simulated intestinal fluid (SIF); assay type: in vitro ADME; conditions: pig, simulated intestinal fluid, SIF, pH 6.8, pancreatin, 37° C., 10 μM; for remaining at 4 h, 10 µM: read-out: SIF (% remaining 4 h)
Method in brief: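 Peptide at 10 μM final in USP-type SIF (10 g/L porcine pancreatin, phosphate buffer pH 6.8), shaken at 37 °C. Samples at 0, 1 and 4 h quenched in acetonitrile/0.1% formic acid and analysed by LC-HRMS. Percent remaining calculated from absolute peak areas relative to time zero.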

[3] = Peptide stability in simulated gastric fluid (SGF); assay type: in vitro ADME; conditions: pig, pH 1.2, pepsin, 37° C.
Method in brief: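 Peptide (10 μM final) incubated at 37 °C in USP SGF, pH 1.2 with porcine pepsin 3.2 g/L; aliquots at 0, 1 and 4 h quenched in acidified acetonitrile.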

IL-23R = conditions: see Examples of WO2023/099669; cited from earlier work

Molecule | Emax (human IL-23R; read-out: % displacement (hIL-23R binding)) [%] | IC50 [1] [pM] | remaining at 1 h, 10 µM [2] [%] | remaining at 1 h, 10 µM [3] [%] | IC50 (human IL-23R) [pM] | remaining at 4 h, 10 µM [2] [%] | remaining at 4 h, 10 µM [3] [%] | hIL-23 (pSTAT3) antagonist % inhibition [1] [%] | inhibitory activity (in words), WO2023/099669 (IL-23R)
CNC(=O)[C@H](Cc1cccnc1)NC(=O)[C@H](CCN)NC(=O)[C@@H]1CCC(=O)NCc2ccc(cc2)CC(=O)N[C@@H](C)C(=O)N[C@H]2CCC(=O)NCC[C@H](NC(=O)[C@H](CCC(N)=O)NC(=O)[C@H](Cc3c[nH]c4ccccc34)NC2=O)C(=O)N[C@@H](Cc2c[nH]c3c(F)cccc23)C(=O)N[C@@H](Cc2ccc3ccccc3c2)C(=O)NC(C)(C)C(=O)N1 [Compound 47, [4-Aminomethyl-phenylacetyl](1c)*AE(2c)WQ[Dab](2c)[7-F-Trp][2-Nal][Aib]E(1c)[Dab][3-(3-Pyridyl)-Ala]-[NHMe]] |  | 330 | 97 | 103 | 69 | 92 | 85 | 98 | 
D(1c)*SC(2a)WQC(2a)WWLR(1c)* [Ref 6] |  |  |  |  |  |  |  |  | inactive
H-DC(1a)SE(2c)WQK(2c)WWLC(1a)R-[NH2] [Ref 5] |  |  |  |  |  |  |  |  | inactive
[Ac]-DK(1c)SC(2a)WQC(2a)WWLE(1c)R-[NH2] [Ref 7] |  |  |  |  |  |  |  |  | inactive

The next lines start with results.

Emax (human IL-23R; read-out: % displacement (hIL-23R binding)) [%] | IC50 [1] [pM] | remaining at 1 h, 10 µM [2] [%] | remaining at 1 h, 10 µM [3] [%] | IC50 (human IL-23R) [pM] | remaining at 4 h, 10 µM [2] [%] | remaining at 4 h, 10 µM [3] [%] | Molecule | hIL-23 (pSTAT3) antagonist % inhibition [1] [%] | inhibitory activity (in words), WO2023/099669 (IL-23R)
102 | 1000 | 82 | 100 |  |  |  | CNC(=O)[C@H](Cc1cccnc1)NC(=O)[C@@H](CO)NC(=O)[C@@H]1CCC(=O)NCc2ccc(cc2)CC(=O)N[C@@H](CO)C(=O)N[C@H]2CCC(=O)NCC[C@H](NC(=O)[C@H](CCC(N)=O)NC(=O)[C@H](Cc3c[nH]c4ccccc34)NC2=O)C(=O)N[C@@H](Cc2ccc(OCCN)cc2)C(=O)N[C@@H](Cc2ccc3ccccc3c2)C(=O)N[C@@](C)(CC(C)C)C(=O)N1 [Compound 38, [4-Aminomethyl-phenylacetyl](1c)*SE(2c)WQ[Dab](2c)[Y(2-aminoethoxy)][2-Nal][2-Me-Leu]E(1c)[{d}S][3-(3-Pyridyl)-Ala]-[NHMe]] | 100 | 
 | 510 |  |  | 24 | 85 | 96 | CNC(=O)[C@H](Cc1cccnc1)NC(=O)[C@](C)(CO)NC(=O)[C@@H]1CCC(=O)NCc2ccc(cc2)CC(=O)N[C@@H](CO)C(=O)N[C@H]2CCC(=O)NCC[C@H](NC(=O)[C@H](CCC(N)=O)NC(=O)[C@H](Cc3c[nH]c4ccccc34)NC2=O)C(=O)N[C@@H](Cc2ccc(OCCN)cc2)C(=O)N[C@@H](Cc2ccc3ccccc3c2)C(=O)N[C@@](C)(CC(C)C)C(=O)N1 [Compound 39, [4-Aminomethyl-phenylacetyl](1c)*SE(2c)WQ[Dab](2c)[Y(2-aminoethoxy)][2-Nal][2-Me-Leu]E(1c)[2-Me-Ser][3-(3-Pyridyl)-Ala]-[NHMe]] | 101 | 
